The results in this text go back to US5116855A, “Rhodanine derivatives and pharmaceutical compositions” (Nisshin Flour Milling Co., Ltd., priority 1989, dated 1992).

For this assay, the target named is T1, aldose reductase (Rattus norvegicus, UniProt P07943).
T1 construct: the lenses were excised and homogenized in cold distilled water; from tissue; host or cells: lens of male SD rats, homogenate supernatant (crude enzyme)
The assay is described as follows: Inhibitory activity against aldose reductase (crude enzyme from rat lenses, NADPH oxidation at 340 nm, D,L-glyceraldehyde substrate). The assay is classed as biochemical. To be noted: aldose reductase from SD rat lenses, pH 6.2, 30° C.; for inhibition at 10 µM: pH 6.2, 10^-5 M; for inhibition at 10 µM / inhibition at 1 µM: read-out: Percentage of inhibition (%); for inhibition at 1 µM: pH 6.2, 10^-6 M. The method, then:
The compounds of the present invention were evaluated for the inhibitory activity against aldose reductase according to the following assay procedure.
Enzyme activity was assayed according to the modification [Biochemical Pharmacology, 25, 2505 (1976)] of the method described in J. Biol. Chem., 240, 877-882 (1965).
SD strain male rats were sacrificed by decapitation, the lenses were excised and homogenized in cold distilled water. The homogenate was then centrifuged and the supernatant was used as the crude aldose reductase solution.
Separately, a 0.1 M sodium phosphate buffer (pH 6.2) containing 0.4 M ammonium sulfate was prepared at 30° C. In this buffer were dissolved the present compound, the crude aldose reductase solution and nicotinamide-adenine dinucleotide phosphate, reduced form (NADPH). The mixture was preincubated at 30° C. for 3 minutes and the reaction was initiated by addition of D,L-glyceraldehyde. In this case, the concentration of the present compound dissolved was 10^-5 M and 10^-6 M, respectively. The total amount of the assay mixture was 1.0 ml, containing 0.16 mM of NADPH, 10 mM of D,L-glyceraldehyde and 0.010-0.016 units of aldose reductase.
The inhibitory activity of the present compounds against aldose reductase was measured using each 1.0 ml of the reaction mixture containing the present compound in the above concentration. In this measurement, the rate of NADPH oxidation was followed by recording the decrease in absorbance at 340 nm. The inhibitory activity of the present compounds against aldose reductase as measured was expressed in percentage of inhibition (%) as a relative activity based on a control value.

One may read the inhibition as how much of the control response was suppressed.

Take “5-[α-Methyl-4-(1H-tetrazol-5-yl)cinnamylidene)-4-oxo-2-thioxothiazolidine [Example 17]”: the “Percentage of inhibition (%)” value (10^-5 M) is recorded as 77.6% and the “Percentage of inhibition (%)” value (10^-6 M) is listed as 35.9%.
On to `CCCC(C=Cc1ccc(C(=O)O)cc1)=C1SC(=S)NC1=O` (single isomer, unassigned) [3 Isomer A], for which the inhibition at 10 µM was 77.1% and the inhibition at 1 µM is 29.7%.
For the molecule `CCCC(C=Cc1ccc(C(=O)O)cc1)=C1SC(=S)NC1=O` (single isomer, unassigned) [3 Isomer B], the “Percentage of inhibition (%)” value by setting is: (10^-5 M) 80.5%; (10^-6 M) 34.5%.
As for `CCOC(=O)CCC(C=Cc1ccc(C(F)(F)F)cc1)=C1SC(=S)NC1=O` (single isomer, unassigned) [6 Isomer A], the inhibition at 10 µM turned out to be 35%.
As to `CCOC(=O)CCC(C=Cc1cccc(O)c1)=C1SC(=S)NC1=O` (single isomer, unassigned) [8 Isomer A], the inhibition at 10 µM worked out at 57.9%.
Take `CCOC(=O)CCC(C=Cc1cccc(O)c1)=C1SC(=S)NC1=O` (single isomer, unassigned) [8 Isomer B]: where the note is “10^-5 M”, the “Percentage of inhibition (%)” value came to 43.1%.
Consider `CCOC(=O)CCC(C=Cc1cccs1)=C1SC(=S)NC1=O` (single isomer, unassigned) [13 Isomer A], for which the inhibition at 10 µM is 56%.
Consider `CCOC(=O)CCC(C=Cc1cccs1)=C1SC(=S)NC1=O` (single isomer, unassigned) [13 Isomer B], for which the “Percentage of inhibition (%)” value (10^-5 M) is 54.3%.
With `CC(C=Cc1ccc(OCC(=O)O)cc1)=C1SC(=S)NC1=O` (single isomer, unassigned) [21 Isomer A], the inhibition at 10 µM was 94.9% and the inhibition at 1 µM was determined as 78.3%.
For the molecule `CC(C=Cc1ccc(OCC(=O)O)cc1)=C1SC(=S)NC1=O` (single isomer, unassigned) [21 Isomer B], the “Percentage of inhibition (%)” value (10^-5 M) is given as 89.8%.
As for `CCCCCCC(C=Cc1ccc(C(=O)O)cc1)=C1SC(=S)NC1=O` (single isomer, unassigned) [26 Isomer A], the inhibition at 1 µM amounted to 68.9%. Besides, the “Percentage of inhibition (%)” value (10^-5 M) was determined as 92.0%.
With `CCCCCCC(C=Cc1ccc(C(=O)O)cc1)=C1SC(=S)NC1=O` (single isomer, unassigned) [26 Isomer B], the “Percentage of inhibition (%)” value (10^-5 M) is reported as 52.1%.
Take `CCCC(CCc1ccccc1OCC(=O)O)=C1SC(=S)NC1=O` (single isomer, unassigned) [27 Isomer A]: the inhibition at 10 µM was 90.6% and the inhibition at 1 µM amounted to 53.1%.
In the case of `CCCC(CCc1ccccc1OCC(=O)O)=C1SC(=S)NC1=O` (single isomer, unassigned) [27 Isomer B], the “Percentage of inhibition (%)” value (10^-5 M) is 83.8% and the “Percentage of inhibition (%)” value (10^-6 M) stood at 45.9%.
With `CCCCCCC(CCc1ccc(CCC(=O)O)cc1)=C1SC(=S)NC1=O` (single isomer, unassigned) [33 Isomer A], the inhibition at 10 µM turned out to be 42.9%.
As for `CCCCCCC(CCc1ccc(CCC(=O)O)cc1)=C1SC(=S)NC1=O` (single isomer, unassigned) [33 Isomer B], under “10^-5 M”, the “Percentage of inhibition (%)” value is listed as 30.5%.
With `COc1ccc(C=CC(CCCC(=O)O)=C2SC(=S)NC2=O)cc1OC` (single isomer, unassigned) [38 Isomer A], the inhibition at 10 µM is 95.7% and the inhibition at 1 µM worked out at 86.8%.
On to `COc1ccc(C=CC(CCCC(=O)O)=C2SC(=S)NC2=O)cc1OC` (single isomer, unassigned) [38 Isomer B], for which the “Percentage of inhibition (%)” value was 94.5% (10^-5 M) and 77.9% (10^-6 M).
For the molecule `CCCCOC(=O)COc1ccc(Cl)cc1C=CC(C)=C1SC(=S)NC1=O` (single isomer, unassigned) [51 Isomer A], the inhibition at 10 µM is 51.4%.
For `CCCCOC(=O)COc1ccc(Cl)cc1C=CC(C)=C1SC(=S)NC1=O` (single isomer, unassigned) [51 Isomer B], the “Percentage of inhibition (%)” value (10^-5 M) came out at 58.7%.
In the case of `CCOC(=O)COc1ccc(C=CC(C)=C2SC(=S)N(C)C2=O)cc1OC` (single isomer, unassigned) [55 Isomer A], the inhibition at 10 µM came to 38.1% and the inhibition at 1 µM turned out to be 23.8%.
With `CCOC(=O)COc1ccc(C=CC(C)=C2SC(=S)N(C)C2=O)cc1OC` (single isomer, unassigned) [55 Isomer B], the “Percentage of inhibition (%)” value (10^-5 M) came out at 47.5% and the “Percentage of inhibition (%)” value (10^-6 M) is 24.3%.
With `COC(=O)COc1ccc(C=CC(C)=C2SC(=S)NC2=O)cc1OCC(=O)OC` (single isomer, unassigned) [60 Isomer A], the inhibition at 10 µM amounted to 61.5% and the inhibition at 1 µM turned out to be 27.7%.
For `COC(=O)COc1ccc(C=CC(C)=C2SC(=S)NC2=O)cc1OCC(=O)OC` (single isomer, unassigned) [60 Isomer B], the “Percentage of inhibition (%)” value runs as follows: (10^-5 M) 70.3%; (10^-6 M) 30.4%.
With `CCCC(=Cc1ccccc1OCC(=O)OC)C=C1SC(=S)NC1=O` (single isomer, unassigned) [61 Isomer A], the inhibition at 10 µM came to 61.8% and the inhibition at 1 µM came to 28.7%.
In the case of `CCCC(=Cc1ccccc1OCC(=O)OC)C=C1SC(=S)NC1=O` (single isomer, unassigned) [61 Isomer B], the “Percentage of inhibition (%)” value was 77.2% (10^-5 M) and 39.0% (10^-6 M).
`COC(=O)COc1ccc(C(C)C)cc1C=CC(C)=C1SC(=S)NC1=O` (single isomer, unassigned) [62 Isomer A]: the inhibition at 10 µM worked out at 48.3%.
Consider `COC(=O)COc1ccc(C(C)C)cc1C=CC(C)=C1SC(=S)NC1=O` (single isomer, unassigned) [62 Isomer B], for which the “Percentage of inhibition (%)” value (10^-5 M) worked out at 66.7%.
On to `CC(C=Cc1ccc(OCC(=O)O)c(OCC(=O)O)c1)=C1SC(=S)NC1=O` (single isomer, unassigned) [83 Isomer A], for which the inhibition at 10 µM came out at 82.4% and the inhibition at 1 µM was 43.4%.
Consider `CC(C=Cc1ccc(OCC(=O)O)c(OCC(=O)O)c1)=C1SC(=S)NC1=O` (single isomer, unassigned) [83 Isomer B], for which the “Percentage of inhibition (%)” value (10^-5 M) came to 75.8% and the “Percentage of inhibition (%)” value (10^-6 M) amounted to 36.8%.
As for `O=C(O)CCC(C=Cc1ccccc1F)=C1SC(=S)NC1=O` (single isomer, unassigned) [Example 22, 6-(2-Fluorophenyl)-4-(4-oxo-2-thioxo-5-thiazolidinylidene)-5-hexenoic acid], the inhibition at 10 µM is 88.1% and the inhibition at 1 µM stood at 41.9%.
Regarding `O=C(O)CCC(C=Cc1ccc(C(F)(F)F)cc1)=C1SC(=S)NC1=O` (single isomer, unassigned) [Example 23, 6-(4-Trifluoromethylphenyl)-4-(4-oxo-2-thioxo-5-thiazolidinylidene)-5-hexenoic acid], the inhibition at 10 µM worked out at 64.6%.
Consider `O=C(O)CCC(C=Cc1cccc(O)c1)=C1SC(=S)NC1=O` (single isomer, unassigned) [Example 25, 6-(3-Hydroxyphenyl)-4-(4-oxo-2-thioxo-5-thiazolidinylidene)-5-hexenoic acid], for which the inhibition at 10 µM worked out at 82% and the inhibition at 1 µM is 32.9%.
Consider `CCCCCCC(C=Cc1ccc(C=CC(=O)O)cc1)=C1SC(=S)NC1=O` (single isomer, unassigned) [Example 28, 4-[3-(4-Oxo-2-thioxo-5-thiazolidinylidene)-1-nonenyl]cinnamic acid], for which the inhibition at 10 µM turned out to be 33%.
